Literature values as cited in US20040006100A1, “Monotherapy for the treatment of parkinson's disease with cyclooxygenase-2 (COX 2) inhibitor(S)” (priority 2002, published 2004).

fraction of levodopa that reaches the brain (levodopa alone administered orally): about 1%
fraction of orally administered levodopa metabolized by decarboxylase and then unable to cross the BBB (oral administration, without carbidopa): Up to 99%
SMILES: N[C@@H](Cc1ccc(O)c(O)c1)C(=O)O [levodopa]
